This note sets out measurements from patent publication US20260265771A1, “METHODS OF INCREASING THE REGENERATION EFFICIENCY IN PLANTS” (Institute of Genetics and Developmental Biology Chinese …, priority 2022, published 2026).

In one assay the test system is LA1777 tomatoes. In words: Shoot regeneration of recalcitrant wild tomato LA1777. The format is cell-based, S. habrochaites. The settings on record: LA1777, 1 nM REF1 vs REF1 absent. On the procedure: (a) photos of LA1777 grown in the presence and absence of 1 nM REF1. (b) relative regeneration frequency of LA1777 grown in the presence and absence of 1 nM REF1. (c) number of hypocotyl of LA1777 grown in the presence and absence of 1 nM REF1.
(a) photos of control LA1777 tomatoes, PRR expressing LA1777 tomatoes, RER expressing LA1777 tomatoes, and PRR and RER expressing LA1777 tomatoes exposed to 1 nM REF1 for 25 days, or absence of REF1 (mock). (b) relative regeneration frequency of control LA1777 tomatoes, PRR expressing LA1777 tomatoes, RER expressing LA1777 tomatoes, and PRR and RER expressing LA1777 tomatoes exposed to 1 nM REF1 for 25 days, or absence of REF1 (mock).
The effect of exogenously applied REF1 in a shoot inducing growth medium was investigated in LA1777 tomatoes by growing LA1777 tomatoes in the presence and absence of 1 nM REF1. […] Likewise, FIG. 20B shoes that relative regeneration frequency of LA1777 was 6-fold higher when grown in the presence of REF1 compared to when REF1 was absent, similarly, the number of hypocotyl was also higher in the presence of REF1.

The subject of the next assay is PI126944 tomatoes. In words: Shoot regeneration of recalcitrant wild tomato PI126944. The format is cell-based, S. peruvianum. The settings on record: PI126944, 1 nM REF1 vs REF1 absent. Here is the method:
(a) photos of PI126944 grown in the presence and absence of 1 nM REF1. (b) relative regeneration frequency of PI126944 grown in the presence and absence of 1 nM REF1. (c) number of hypocotyl of PI126944 grown in the presence and absence of 1 nM REF1.
(a) Photos of P126944 tomatoes (WT, PRR transformed, RER transformed, and PRR+RER transformed, grown in presence or absence of 1 nM REF1 for 19 days. (b) relative regeneration frequency of P126944 tomatoes (WT, PRR transformed, RER transformed, and PRR+RER transformed, grown in presence or absence of 1 nM REF1 for 19 days.
The effect of exogenously applied REF1 in a shoot inducing growth medium was investigated in PI126944 tomatoes by growing PI126944 tomatoes in the presence and absence of 1 nM REF1.
PI126944 tomatoes were transformed with the PRR+RER-OE construct as well as an equivalent construct only containing PRR and another construct only containing RER. Plants expressing these constructs along with a wild type control were grown in the presence or absence of REF1 for 19 days.

Values joined by “and” are separate entries in the source; they are usually repeats but may differ in a detail not shown here. Equal values may be shown once. “Also recorded” adds a separate entry of the source.

For the sequence “ATDRRGRPPSRPKVGSGPPPQNN (listed as Solanum lycopersicum) [REF1, 23 amino acid tomato peptide cleaved from precursor PROSIPEP]”, in the assay with LA1777 tomatoes, the number of hypocotyl entry is recorded as “higher”; the “relative regeneration frequency, increase” value is ~ 6 fold and 6 fold; the shoot regeneration entry was “greater shoot regeneration; also recorded: promotes shoot regeneration”. In addition, in the assay on PI126944 tomatoes, the number of hypocotyl entry is on record as “higher”; the “relative regeneration frequency, increase” value was determined as 5.5 fold; the shoot regeneration result is on record as “greater shoot regeneration; also recorded: promotes shoot regeneration”.
